Test results from patent publication US6410320B1, “Method and compositions for isolation and growth of kidney tubule stem cells, in vitro kidney tubulogenesis and ex vivo construction of renal tubules” (The University of Michigan, priority 1992, dated 2002).

Tested on: renal proximal tubule cells
Assay: Phenotypic transformation / lumen formation (tubulogenesis) in a confluent monolayer, by light and electron microscopy
Format: cell-based, rabbit
Conditions: density-arrested confluent monolayer; where present TGF-β1 10 ng/ml, EGF 1 nM, RA 0.1 μM; 144 hours in Example 1
Method: Rabbit renal proximal tubule cells were grown in primary culture by techniques reported by Humes et al. in Lab. Invest. 64:538-45 (1991). The cells were grown in 35 mm Corning culture dishes with serum-free, hormonally defined Dulbecco's Modified Eagle Hams F-12 media (1:1, v/v) containing L-glutamine, penicillin, streptomycin, 50 nM hydrocortisone, 5 μg/ml of insulin, and 5 μg/ml of transferrin. The cultures were maintained in a humidified 5% CO2/95% air incubator at 37° C. Medium was changed every 3 to 5 days, depending on nutrient requirements based upon cell number. Cultures became confluent in 9 to 12 days. Once confluent, various agents as described below were added in 20 μl aliquots at various times to promote changes in morphologic phenotype or pattern formation.
Specimens for ultrastructural analysis were fixed with 2% glutaraldehyde in Sorenson's buffer (pH 7.2, 310 mOsm). Postfixation occurred in 1% OsO4 followed by dehydration in ethanol. Specimens were transferred through propylene oxide into monomer mixture (poly/Bed 812A, Araldite, DDSA and DMP-30) and polymerized at 60° C. Thin sections were stained with uranyl acetate and lead citrate, and examined in a Zeiss 9-S2 transmission electron microscope.
Of note, in each aggregation of cells one or two lumen structures were usually observed in random sectioning of tissue culture preparations. […]

Row | Molecule | morphologic phenotype of the monolayer / lumen formation
1 | CC1=C(/C=C/C(C)=C/C=C/C(C)=C/C(=O)O)C(C)(C)CCC1 [RA, all-trans retinoic acid] | no dramatic effect on the appearance of the monolayer
2 | TGF-β1: transforming growth factor-β1 (porcine platelets) from R & D Systems | no lumen formation was observed
